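48-hour exposure; five concentrations; linearly interpolated endpoints. TGI denotes the concentration required for complete inhibition of growth.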

What all share (assay): NCI anticancer screen, dose series, 48 h
The test system of assay [1] is CAKI-1 renal.
The subject of assay [2] is CCRF-CEM leukemia.
The test system of assay [3] is HCC-2998 colon.
For assay [4], the system named is HL-60(TB) leukemia.
Assay [5] deals with HOP-62 NSCLC.
Assay [6] concerns HOP-92 NSCLC.
The subject of assay [7] is KM12 colon.
Assay [8] relates to M14 melanoma.
Assay [9] relates to NCI-H23 lung.
For assay [10], the system named is NCI-H522 lung.
For assay [11], the system named is OVCAR-3 ovarian.
Assay [12] relates to PC-3 prostate.
The subject of assay [13] is SF-268 CNS.
Assay [14] deals with SK-MEL-5 melanoma.
Assay [15] concerns TK-10 renal.
Assay [16] has as its system U251 CNS.
Assay [17] concerns UACC-257 melanoma.
Assay [18] has as its system A549 NSCLC.
In assay [19] the test system is MALME-3M melanoma.

Take `CC1=NN(c2cccc(Cl)c2)C2(SCC(=O)N2c2nc3ccccc3s2)/C1=C\c1ccc(N(C)C)cc1` (stereo not drawn): the TGI in [1] is above 100 µM; in [2], above 100 µM; in assay [3], above 100 µM; in assay [4], above 100 µM; in assay [5] it was 48.6 µM; in assay [6], 79.9 µM. Further, the TGI in assay [7], in assay [8], in [9], in [10], in [11] and in assay [12] was above 100 µM in each case. In addition, the TGI in assay [13], in assay [14], in [15], in assay [16] and in assay [17] was above 100 µM each time.
As for `COc1ccc(P2(=S)Oc3ccccc3-c3ccccc3O2)cc1`, the TGI in assay [18] was above 54.9 µM; in [2] it was above 100 µM; in [3] it was 9.56 µM; in assay [5] it was above 100 µM; in assay [6] it was 85.3 µM; in assay [7], above 100 µM. Besides, the TGI in [8] was above 100 µM; in [19] it was above 100 µM; in assay [9], above 100 µM; in assay [11], 0.493 µM; in assay [13], above 100 µM; in assay [14], above 79.7 µM. Moreover, the TGI in [15], in [16] and in assay [17] was above 100 µM each time.
Turning to `CC(C)(Oc1ccccc1)C(=O)Sc1c(-c2ccccc2)c(=O)n(-c2ccccc2)c(=S)n1-c1ccccc1`, the TGI in assay [18] was above 100 µM; in assay [1], above 100 µM; in assay [2], above 100 µM; in assay [3], above 100 µM; in [4] it was 64.7 µM; in assay [5], 52.8 µM. Also, the TGI in assay [6] is above 100 µM; in [7], 64.7 µM; in assay [8], above 100 µM; in assay [19], above 100 µM; in assay [9], above 100 µM; in assay [10], 64.2 µM. For the same compound, the TGI in [11] was 96.4 µM; in assay [13] it was 80.2 µM; in assay [15], above 100 µM; in assay [16], 56.5 µM; in assay [17] it was above 100 µM.
Turning to `CCN1C(=O)C(=C/C=C/C=C2/N(C)c3ccccc3C2(C)C)C(=O)N(CC)C1=S`, the TGI in assay [18], in assay [1], in assay [2], in assay [4], in [5] and in assay [6] was above 100 µM each time. For the same compound, the TGI in assay [7], in assay [8], in assay [19], in assay [9], in assay [10] and in assay [11] was above 100 µM in each case. The TGI in [13], in [15] and in assay [17] was above 100 µM throughout.
Take `COc1ccc2nccc(SCC(=O)O)c2c1`: the TGI in assay [18], in assay [1], in assay [2], in [4], in [5] and in assay [6] was above 100 µM in each case. Further, the TGI in assay [7], in assay [8], in assay [9], in [10], in [11] and in assay [12] was above 100 µM each time. The TGI in assay [13], in [14], in assay [15], in assay [16] and in assay [17] was above 100 µM in each case.
Consider `O=C1/C(=C/c2ccc(OC(=O)c3ccccc3)cc2)CCC/C1=C\c1ccc(OC(=O)c2ccccc2)cc1`, for which the TGI in [18], in assay [1], in assay [2], in [3], in [4] and in assay [5] was above 100 µM throughout. Besides, the TGI in assay [6], in assay [7], in assay [8], in [9], in assay [10] and in [11] was above 100 µM in each case. Also, the TGI in assay [12], in [13], in assay [14], in assay [15], in assay [16] and in [17] was above 100 µM throughout.
`CCCCCCc1ccc(C(=O)NO)cc1`: the TGI in assay [18] was above 100 µM; in assay [1], 84.3 µM; in [2], 52.8 µM; in assay [3], above 100 µM; in assay [4] it was 53.8 µM; in [5], above 100 µM. Further, the TGI was above 100 µM in assay [6]; above 100 µM in [7]; above 100 µM in assay [8]; above 100 µM in [9]; 80.4 µM in assay [10]; above 100 µM in [11]. Further, the TGI in [12], in assay [13], in assay [14], in assay [15], in assay [16] and in assay [17] was above 100 µM throughout.
Regarding `C/C(=N\n1c(Cc2ccccc2)n[nH]c1=O)c1ccccc1`, the TGI in [18], in assay [1], in assay [2], in assay [4], in assay [6] and in [7] was above 100 µM each time. The TGI in assay [8], in assay [19], in assay [9], in assay [10], in assay [12] and in assay [13] was above 100 µM in each case. Also, the TGI in assay [14], in assay [15], in assay [16] and in [17] was above 100 µM in each case.

These data come from PubChem BioAssay (NCI).
